Assay results published in patent US8580823B2, “Piperidine renin inhibitors” (Vitae Pharmaceuticals, Inc., priority 2006, dated 2013).

Assays:
[1] = target: T1, trypsin-activated recombinant human renin (Homo sapiens, UniProt P00797); experiment: In vitro renin inhibition, fluorescence of internally quenched peptide substrate; type: biochemical; conditions: fluorogenic peptide substrate, pH 7.0, rt
T1 sequence (P00797 67-406): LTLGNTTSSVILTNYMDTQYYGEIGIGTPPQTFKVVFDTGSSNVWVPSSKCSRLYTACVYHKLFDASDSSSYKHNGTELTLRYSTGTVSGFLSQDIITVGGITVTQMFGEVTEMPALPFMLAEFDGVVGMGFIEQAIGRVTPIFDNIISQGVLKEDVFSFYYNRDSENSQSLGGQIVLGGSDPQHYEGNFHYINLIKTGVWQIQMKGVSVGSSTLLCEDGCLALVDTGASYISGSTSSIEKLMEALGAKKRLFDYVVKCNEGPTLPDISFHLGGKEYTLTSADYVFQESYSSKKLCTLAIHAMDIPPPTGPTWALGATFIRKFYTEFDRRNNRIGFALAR
Description: The sequence of this peptide corresponds to the sequence of human angiotensinogen. The following test protocol was used. All reactions were carried out in a flat bottom white opaque microtiter plate. A 4 μL aliquot of 400 μM renin substrate (DABCYL-γ-[…]) in 192 μl, assay buffer (50 mM BES, 150 mM NaCl, 0.25 mg/mL bovine serum albumin, pH7.0) was added to 4 μl, of test compound in DMSO at various concentrations ranging from 10 μM to 1 nM final concentrations. Next, 100 μL of trypsin-activated recombinant human renin (final enzyme concentration of 0.2-2 nM) in assay buffer was added, and the solution was mixed by pipetting. The increase in fluorescence at 495 nm (excitation at 340 nm) was measured for 60-360 minutes at rt using a Perkin-Elmer Fusion microplate reader. The slope of a linear portion of the plot of fluorescence-increase as a function of time was then determined, and the rate is used for calculating percent inhibition in relation to uninhibited control. […] (Wang G. T. et al. Anal. Biochem. 1993, 210, 351; Nakamura, N. et al. J. Biochem. (Tokyo) 1991, 109, 741; Murakami, K. et al. Anal Biochem. 1981, 110, 232).

[2] = target: T2, plasma renin activity (PRA) (Homo sapiens, UniProt P00797); experiment: In vitro plasma renin activity (PRA) in human plasma, angiotensin I radioimmunoassay; type: biochemical; conditions: IC50 in pooled human plasma, 37° C., 90 min
T2 construct: pooled mixed-gender human plasma stabilized with EDTA; from tissue; host or cells: pooled mixed-gender human plasma (EDTA)
T2 sequence (P00797 67-406): T1 sequence (P00797 67-406)
Description: Incubations mixtures contained in the final volume of 250 μL 95.5 mM N,N-bis(2-hydroxyethyl)-2-aminoethanesulfonic acid, pH 7.0, 8 mM EDTA, 0.1 mM neomycin sulfate, 1 mg/mL sodium azide, 1 mM phenylmethanesulfonyl fluoride, 2% DMSO and 87.3% of pooled mixed-gender human plasma stabilized with EDTA. For plasma batches with low PRA (less than 1 ng/ml/hr) ˜2 pM of recombinant human renin was added to achieve PRA of 3-4 ng/ml/hr. The cleavage of endogenous angiotensinogen in plasma was carried out at 37° C. for 90 min and the product angiotensin I was measured by competitive radioimmunoassay using DiaSorin PRA kit.

[3] = test system: double transgenic rats engineered to express human renin and human angiotensinogen; experiment: In vivo blood pressure by telemetry in double transgenic rats; set-up: species or system rat; conditions: 6-week-old dTGRs, oral, 4 consecutive days, dosage of 3-10 mg/kg
Description: Double Transgenic Rats: The efficacy of the renin inhibitors can also be evaluated in vivo in double transgenic rats engineered to express human renin and human angiotensinogen (Bohlender J, Fukamizu A, Lippoldt A, Nomura T, Dietz R, Menard J, Murakami K, Luft F C, Ganten D. High human renin hypertension in transgenic rats. Hypertension 1997, 29, 428-434).
Experiments were conducted in 6-week-old double transgenic rats (dTGRs). The model has been described in detail earlier. […] The human angiotensinogen construct made up the entire human angiotensinogen gene (5 exons and 4 introns), with 1.3 kB of 5′-flanking and 2.4 kB of 3′-flanking sequences. The rats were purchased from RCC Ltd (Füllinsdorf, Switzerland). Radio telemetry transmitters were surgically implanted at 4 weeks of age. The telemetry system provided 24-h recordings of systolic, mean, diastolic arterial pressure (SAP, MAP, DAP, respectively) and heart rate (HR). Beginning on day 42, animals were transferred to telemetry cages. A 24 h telemetry reading was obtained. Rats were then dosed orally on the following 4 consecutive days (days 43-46). The rats were monitored continuously and allowed free access to standard 0.3%-sodium rat chow and drinking water.

Structure (SMILES): CN[C@H](CNC(=O)N1CCC[C@@H]([C@H](OCCNC(=O)OC)c2cc(Cl)ccc2C)C1)C[C@H]1CCCOC1 [Compound 11, methyl 2-((S)-(5-chloro-2-methylphenyl)((R)-1-((S)-2-(methylamino)-3-((R)-tetrahydro-2H-pyran-3-yl)propylcarbamoyl)piperidin-3-yl)methoxy)ethylcarbamate]
- IC50 [1]: < 10 nM
- IC50 [2]: < 10 nM

Structure (SMILES): CN[C@H](CNC(=O)N1CCC[C@@H]([C@@H](OCCNC(=O)OC)c2cc(F)cc(Cl)c2)C1)C[C@H]1CCCOC1 [Compound 9, methyl 2-((R)-(3-chloro-5-fluorophenyl)((R)-1-((S)-2-(methylamino)-3-((R)-tetrahydro-2H-pyran-3-yl)propylcarbamoyl)piperidin-3-yl)methoxy)ethylcarbamate]
- IC50 [1]: < 1 nM
- IC50 [2]: < 10 nM

Structure (SMILES): CN[C@H](CNC(=O)N1CCC[C@@H]([C@@H](OCCNC(=O)OC)c2cccc(Cl)c2)C1)C[C@H]1CCCOC1 [Compound 7, methyl 2-((R)-(3-chlorophenyl)((R)-1-((S)-2-(methylamino)-3-((R)-tetrahydro-2H-pyran-3-yl)propylcarbamoyl)piperidin-3-yl)methoxy)ethylcarbamate]
- effect in lowering blood pressures (mean arterial blood pressure, FIG. 2) [3]: significant effect in lowering blood pressures

Structure (SMILES): CCN[C@H](CNC(=O)N1CCC[C@@H]([C@@H](OCCNC(=O)OC)c2cc(Cl)ccc2C)C1)C[C@H]1CCCOC1 [Compound 12, methyl 2-((R)-(5-chloro-2-methylphenyl)((R)-1-((S)-2-(ethylamino)-3-((R)-tetrahydro-2H-pyran-3-yl)propylcarbamoyl)piperidin-3-yl)methoxy)ethylcarbamate]
- IC50 [1]: < 10 nM

Structure (SMILES): CN[C@H](CNC(=O)N1CCC[C@@H]([C@@H](OCCNC(=O)OC)c2cc(F)cc(F)c2)C1)C[C@H]1CCCOC1 [Compound 10, methyl 2-((R)-(3,5-difluorophenyl)((R)-1-((S)-2-(methylamino)-3-((R)-tetrahydro-2H-pyran-3-yl)propylcarbamoyl)piperidin-3-yl)methoxy)ethylcarbamate]
- IC50 [1]: < 10 nM
- IC50 [2]: < 10 nM
